Measured values taken from patent publication US20130184330A1, “COMPOSITIONS AND METHODS FOR INDUCING CANCER CELL DEATH” (UNIVERSITY OF MIAMI, priority 2010, published 2013).
Entries after “also recorded” stand apart in the source; their conditions may differ.

Columns and labels:
[1] = test system: eif2-α and GCN2 phosphorylation in PERK−/− MEFs; experiment: Western blot of phosphorylated eif2-α and GCN2 in PERK knock-out MEFs; assay type: cell-based, mouse
From the text: (§1) Cell types: Human tumor cell lines 1469 (pancreatic) and MDA-MB-435 (melanoma) were purchased from American Type Culture Collection (ATCC), and maintained in DMEM with 1 g/l of glucose (Mediatech). Mouse embryonic fibroblasts (MEF) that are PERK knock-out and its wild type pair were a kind gift from Dr. Mark Lehrman (University of Southwestern Texas, Dallas, Tex.). MEFs that have wild type eif2-α and eif2-α with its serine51 mutated to alanine were a kind gift from Dr. Glen Barber (University of Miami, Miami, Fla.). All MEFS were maintained in RPMI with 2 g/l of glucose (Invitrogen). All culture media were supplemented with 10% fetal bovine serum (FBS) (Invitrogen), penicillin/streptomycin (Invitrogen) and 0.1% Plasmocin (only for cell passage) (InvivoGen) unless otherwise specified. Cells were grown under 5% CO2 at 37° C.
(§2) Immunoblotting analysis: Cells were seeded onto six-well plates and cultured for 18-22 h to reach 40-70% confluence. Following drug exposure for the indicated times, cells were harvested and lysed with the lysis buffer (100 mM Tris-HCl at pH 7.4, 1% SDS, phosphatase inhibitor cocktail 2 and protease inhibitor cocktail from Sigma-Aldrich). Protein concentrations of each sample were determined using a Micro BCA Protein Assay Kit (Thermo Scientific) according to the manufacturer's directions, and equal amounts of proteins were loaded onto 4-15% Tris-HCl gradient gels (except 12% gels for siRNA experiments) (Bio-Rad). After SDS-PAGE, proteins were transferred onto a polyvinylidene fluoride (PVDF) membrane (Millipore), blocked with 5% milk and probed with corresponding primary antibodies overnight (except 1 h for β-actin). The membrane was washed and probed with secondary antibodies for 1 h. Membrane was then incubated with SuperSignal West Pico or Femto Chemiluminescent Substrate (Thermo Scientific) and signals were visualized on Blue Lite Autorad Films (ISCBioExpress). All primary antibodies were used at 1:1000 dilution except for Atg7 (1:300) and β-actin (1:10000), and the secondary antibodies were used at 1:10000. Representative blots from at least three independent experiments were shown unless otherwise indicated.

PERK−/− MEFs = experiment: Cell death analysis in PERK knock-out MEFs; assay type: cell-based, mouse
From the text: as §1
(§3) Growth inhibition and Cytotoxicity assays: Cells were seeded onto 24-well plates and cultured for 18-22 h. After drug exposure for 48 hours, attached cells and their respective culture media were collected and centrifuged at 400 g for 5 min. The pellets were then resuspended in Hanks Balanced Salt Solution (HBSS) (Mediatech) and analyzed with Vi-Cell cell viability analyzer (Beckman Coulter) based on trypan blue exclusion. Results were shown as the percentages of dead cells out of total cells counted. Data were the averages of triplicate samples +SD from one representative experiment out of at least three independent analyses unless otherwise indicated.
(§4) siRNA transfection: Cells were seeded into 25-cm^2 flasks and cultured for 24 h to reach ˜60% confluence using antibiotics-free media. Then, cells were transfected with anti-Luc siRNA-1 (targeting luciiferase) or ON-TARGETplus SMARTpool siRNA against PERK or GCN2 using the DharmaFECT siRNA transfection reagent #2 (Dharmacon). Twenty-four hours after transfection, cells were collected and re-seeded onto 6-well or 24-well plates and drug-treated for immunoblotting or cytotoxicity analyses, respectively.

MDA-MB-435 cells = experiment: Growth inhibition assay, Vi-Cell trypan blue exclusion; assay type: cell-based, human; conditions: 48 hours, equivalent doses, i.e. 0.3 mM and 2 mM
From the text: as §1
as §3, with “Data were the averages of triplicate samples +SD from one representative experiment out of at least three independent analyses unless otherwise indicated.” left out

[2] = test system: AMPK and eif2-α phosphorylation, GRP78 and CHOP expression in MDA-MB-435 cells; experiment: Western blot of ATP and ER stress/UPR markers; assay type: cell-based, human
From the text: as §1, §2, §4

[3] = test system: patients with various tumor types; conditions: in combination with taxotere; cited from earlier work
MEF eif2a A/A = experiment: Cell death analysis in MEFs with non-phosphorylatable eif2-α; assay type: cell-based, mouse; conditions: 48 hours
From the text: as §1
as §3, with “Data were the averages of triplicate samples +SD from one representative experiment out of at least three independent analyses unless otherwise indicated.” left out

PERK+/+ MEFs = experiment: Cell death analysis in wild type MEFs; assay type: cell-based, mouse; conditions: similar conditions as for PERK−/− cells
From the text: as §1
as §3, with “Data were the averages of triplicate samples +SD from one representative experiment out of at least three independent analyses unless otherwise indicated.” left out

SMILES: NC(=O)CC[C@H](N)C(=O)O [glutamine]
- eif2-α phosphorylation with exogenous glutamine ([1]; 2-DG treated PERK−/− cells, exogenous glutamine): reduces
- 2-DG induced GCN2 phosphorylation with exogenous glutamine ([1]; glutamine increased to 8 mM): attenuated
- 2-DG toxicity in PERK−/− cells in 8 mM vs 4 mM glutamine (PERK−/− MEFs; 8 mM glutamine, 2-DG 48 hours): increased toxicity

SMILES: O=C[C@H](F)[C@@H](O)[C@H](O)[C@H](O)CO [2-FDG, 2-fluoro-deoxy-D-glucose]
- growth inhibitory activity compared with 2-DG (MDA-MB-435 cells): significantly less growth inhibitory activity than 2-DG
- toxicity of 2-FDG in PERK−/− cells (PERK−/− MEFs; doses that do not induce ER stress but block glycolysis, 48 hours): very little or no toxicity
- induction of UPR marker GRP 78 compared with 2-DG ([2]; equivalent doses, 0.3 mM and 2 mM): less induction

SMILES: O=CC[C@@H](O)[C@H](O)[C@H](O)CO [2-DG, 2-Deoxy-D-glucose]
- tolerability in phase I trial [3]: well-tolerated
- sensitivity of eif2-α mutant MEFs to toxic effects of 2-DG vs parental (MEF eif2a A/A): more sensitive
- 2-DG toxicity in PERK+/+ cells with siRNA against GCN2 or increased glutamine (PERK+/+ MEFs): not increased
- GCN2 phosphorylation induced by 2-DG ([1]; 2-DG 2 and 8 mM, 4 mM glutamine, 24 hours): induces phosphorylation of GCN2
- phosphorylated eif2-α levels in PERK−/− vs PERK+/+ cells ([1]; as a function of time of treatment with 2-DG): significantly lower levels
- toxicity of 2-DG in PERK−/− vs PERK+/+ MEFs (PERK−/− MEFs; 48 hours): more toxic; also recorded: more sensitive
- eIF2a phosphorylation ([2]; 2-DG 0.2 mM and 2 mM, 24 hours): phosphorylated (inhibited)
- AMPK phosphorylation ([2]; 2-DG 0.2 mM, 24 hours): phosphorylated
- levels of UPR chaperone GRP 78 ([2]; 2-DG, aerobic conditions): increased levels
